Values after ≈ are worked out from the molar mass of the structure shown.
Conditions: buffer; pH 7.4; 200.0 µM

SMILES	solubility kinetic [µg/mL]
Cc1ccc(/C=C(\C#N)C(=O)NCc2ccco2)o1	9 (≈ 35.1 µM)
CC(=O)Nc1nc(C)c(Oc2cccc(C(F)(F)F)c2)c(=O)[nH]1	45.1 (≈ 138 µM)
CCOc1ncccc1C(=O)Nc1ccc(F)cc1	13.7 (≈ 52.6 µM)
COc1cccc(N2CCN(c3nc(C)cc(=O)[nH]3)CC2)c1	44.6 (≈ 148 µM)
c1ccc(-c2cn(-c3ccccc3)c3ncnc(N4CCCCC4)c23)cc1	< 0.2
CC(=O)Nc1ccc(S(=O)(=O)NC(C)(C#N)C2CC2)cc1 (stereo not given)	> 46.1
COc1cccc(C(=O)N(Cc2cccs2)C2CCS(=O)(=O)C2)c1 (stereo not given)	> 54.8
COC(=O)C1CCC(=S)N1C(=O)c1ccccc1 (stereo not given)	> 39.5
O=C(O)C1CCN(S(=O)(=O)c2ccc(Cl)s2)CC1	> 46.5
CC1C(=O)N2CCCc3cc(NS(C)(=O)=O)cc1c32 (stereo not given)	40.3 (≈ 144 µM)
Nc1nnc(SCC(=O)NC2CCCCCCC2)s1	> 45.1
CCCCOc1ccc(C(=O)NN2CCOCC2)cc1	> 41.8
O=C(NCc1cccc(C(F)(F)F)c1)c1ccc[nH]1	> 40.2
COc1cccc(OC)c1C(=O)Nc1sc2c(c1C#N)CCC2	0.7 (≈ 2.13 µM)
O=C(O)CC1(CC(=O)NCc2ccncc2)CCCCC1	> 43.6
COc1ccccc1CNC(=S)NC1CCCCC1	> 41.8
CC(C)[C@H](NC(=O)c1ccccc1)C(=O)NCCc1ccccc1	10.3 (≈ 31.7 µM)
O=C(Nc1ccc(F)c(Cl)c1)c1cc(-c2ccco2)on1	< 0.3
N#Cc1ccc(CSc2nnc3ccccn23)cc1	> 39.9
O=C(NCCCn1ccnc1)c1ccccc1Cl	> 39.6
Cc1cccc(N)c1-c1c(C)cccc1N	> 31.8
Cc1ccc2[nH]c(C(=O)N3CCN(C=O)CC3)cc2c1	> 40.7

SMILES	solubility kinetic [µg/mL]
O=C(COc1ccc(Nc2ccccc2)cc1)Nc1ccncc1	9.2 (≈ 28.8 µM)
COc1ccc(S(=O)(=O)N2CCc3ccccc32)cc1[N+](=O)[O-]	6.4 (≈ 19.1 µM)
CSc1cccc(NC(=S)N(C(C)C)C(C)c2ccccn2)c1 (stereo not given)	9.6 (≈ 27.8 µM)
CN(CC(=O)Nc1ccc(F)cc1[N+](=O)[O-])C1CCS(=O)(=O)C1 (stereo not given)	> 51.8
O=C(O)c1ccc2c(c1)C(=O)N(Cc1ccco1)C2=O	> 40.7
COC(=O)CC1C(=O)NCCN1C(=O)c1c(F)cccc1F (stereo not given)	> 46.8
O=Cc1ccc(Oc2ncccn2)cc1	> 30
CS(=O)(=O)Nc1ccc(-c2cn3cccnc3n2)cc1	> 43.2
Cc1cc(SCc2cccc(C(F)(F)F)c2)nc(=O)[nH]1	26.9 (≈ 89.6 µM)
CCCCNC(=O)c1cc2cc(OC)ccc2[nH]1	15.4 (≈ 62.5 µM)
CCc1nnc(NC(=O)CN2CCCC(C)C2)s1 (stereo not given)	> 40.3
O=C(c1ccc(F)cc1)C1CCN(C(=O)c2ccccc2)CC1	> 46.7
Cc1onc(-c2ccccc2)c1C(=O)O/N=C(\N)c1ccc([N+](=O)[O-])o1	11.6 (≈ 32.6 µM)
CCC1(CC)NC(=O)N(CC(=O)N2CCc3ccccc32)C1=O	45.8 (≈ 145 µM)
CC(C)(CNC(=O)Cc1ccc(Cl)cc1Cl)N1CCCCC1	> 51.5
COc1cccc(N2CN(C3CCCCC3)CNC2=S)c1	> 45.8
CCNc1nc(NCC)nc(Oc2ccc(C(=O)OC)cc2)n1	2.8 (≈ 8.82 µM)
COc1cc2nc(CN3CCN(S(=O)(=O)c4ccccc4C(F)(F)F)CC3)[nH]c(=O)c2cc1OC	12.4 (≈ 24.2 µM)
Cc1cc(C)c2nc(C)cc(Nc3ccc(C(=O)NCCO)cc3)c2c1	35.5 (≈ 102 µM)
Cc1ccc(/C=C2/C(=O)ON=C2c2ccccc2)o1	38 (≈ 150 µM)
CCCCc1c(O)nc(SCC(=O)N2CCCCCC2)[nH]c1=O	48.9 (≈ 144 µM)
NS(=O)(=O)c1cccc(NC(=O)COC(=O)c2cc([N+](=O)[O-])ccc2N2CCCC2)c1	9.7 (≈ 21.6 µM)

SMILES	solubility kinetic [µg/mL]
Cn1c(=O)[nH]c2ncccc21	> 22.4
Cc1cccc(NC(=O)CSc2cccc[n+]2[O-])c1C	39.7 (≈ 138 µM)
COc1cc(C(=O)NCCOc2ccccc2)cc(OC)c1OC	> 49.7
CCOC(=O)C1CCN(C(=O)C2COc3ccccc3O2)CC1 (stereo not given)	32.3 (≈ 101 µM)
O=C(Nc1ccccc1C(F)(F)F)c1cnccn1	21.5 (≈ 80.5 µM)
CC(=O)N[C@@H](Cc1c[nH]c2ccccc12)C(=O)NCc1ccccc1	> 50.3
C=CCc1c(C)nc(SCc2ccccc2)[nH]c1=O	10.4 (≈ 38.2 µM)
O=C(C[n+]1ccccc1)Nc1ccc(Cl)c([N+](=O)[O-])c1.[Cl-]	> 49.2
CC(=O)c1c(C)[nH]c(-c2ccccc2)nc1=S	33.2 (≈ 136 µM)
O=C(Nc1cccc(C(=O)N2CCCc3ccccc32)c1)c1ccccc1	17.2 (≈ 48.3 µM)
COc1cc(CCC(=O)NCC2CCCO2)cc(OC)c1OC (stereo not given)	44 (≈ 136 µM)
COC(=O)CSc1nc(NCc2ccccc2)nc(N(C)C)n1	0.3 (≈ 0.9 µM)
C(=C\c1ccccc1)/CN1CCN(Cc2ccc3c(c2)OCO3)CC1	43 (≈ 128 µM)
CC(C)NC(=O)[C@H]1N2C(=O)c3ccccc3C2SC1(C)C (stereo not given in full)	> 45.7
O=C(CN1CCOCC1)NNC(=O)c1ccc([N+](=O)[O-])cc1	> 46.2
Cc1cc(C)c(NS(=O)(=O)c2c(C)noc2C)c(C)c1	33.3 (≈ 113 µM)
O=[N+]([O-])c1ccc(Nc2ccccc2O)c2nonc12	> 40.8
CCSC1=NCCN1C(=O)Cc1ccc(-c2ccccc2)cc1	3.3 (≈ 10.2 µM)
Cc1cc(CNC(=O)c2cccc([N+](=O)[O-])c2)c2ccccc2n1	2.8 (≈ 8.71 µM)
O=[N+]([O-])c1ccccc1S(=O)(=O)Nc1cccnc1	> 41.9
Cc1ccc(NC(=O)Cn2cnc([N+](=O)[O-])c2)cc1C	> 41.1
COCCNC(=O)C(=O)Nc1cc2c3c(c1)CC(=O)N3CCC2	42.3 (≈ 133 µM)

SMILES	solubility kinetic [µg/mL]
CCCC1NC(C(=O)O)Cc2c1[nH]c1ccccc21 (stereo not given)	37.3 (≈ 144 µM)
COc1ccc(CNC(=O)CSc2cccc3cccnc23)cc1	> 50.8
O=CN1CCN(C(=O)c2cc3cc(Cl)ccc3[nH]2)CC1	34.9 (≈ 120 µM)
COC(=O)c1ccc(C(=O)Nc2ccc3c(c2)C(=O)NC3=O)cc1	< 0.3
Nc1ncc(CCN2CCOCC2)c(-c2ccc(F)cc2)n1	> 45.4
CN(C)c1nc(N(C)C)nc(N(C#N)CCCl)n1	19.2 (≈ 71.2 µM)
CC(CCc1ccccc1)NC(=O)CCC(=O)N1CCC(C(N)=O)CC1 (stereo not given)	48.7 (≈ 135 µM)
Cc1cc(C)nc(SCCC(=O)Nc2ccc(F)cc2)n1	> 45.8
CC(=O)NS(=O)(=O)c1ccc(NC(=O)C(C)NS(=O)(=O)/C=C/c2ccccc2)cc1 (stereo not given)	63.3 (≈ 140 µM)
Fc1cccc(-c2csc(-c3ccno3)n2)c1	3.6 (≈ 14.6 µM)
COCc1cc(=O)[nH]c(SC)n1	> 27.9
COc1cc2c(cc1OC)CN(c1ncccc1[N+](=O)[O-])CC2	5.6 (≈ 17.8 µM)
COc1cccc(Oc2cc(Cl)nc(N)n2)c1	15 (≈ 59.6 µM)
C=C(C)c1cccc(C(C)(C)NC(=O)N2CCN(c3ccccc3)CC2)c1	0.3 (≈ 0.825 µM)
CN(C(=O)COC(=O)c1ccc(Cl)c(S(=O)(=O)N2CCCCCC2)c1)C1CCS(=O)(=O)C1 (stereo not given)	> 76.1
COc1ccc(OC)c(/C=C/C(=O)OCC(=O)N2CCCC2)c1	> 47.9
O=c1cnc2ccccc2n1Cc1ccccc1C(F)(F)F	43.1 (≈ 142 µM)
S=C(NCCc1ccccn1)NC1CC2CCC1C2 (stereo not given)	> 41.3
N#CC1=C(N)OC2=C(C(=O)CCC2)C1c1ccc2c(c1)OCO2 (stereo not given)	16.5 (≈ 53.2 µM)
